Measurements: patent publication US8350015B2, “Cyanine dye” (Kabushiki Kaisha Hayashibara Seibutsu Kagaku Kenkyujo, priority 2004, dated 2013)

Test: Optical resistance of cyanine dye thin membrane exposed to xenon lamp
Assay type: physicochemical
Settings: xenon lamp 180 W/m^2, exposure 5.5 hours
Procedure: The resulting solution was poured dropwise on one side of a polished glass plate (5 cm×5 cm) and homogenously spread over the surface of the plate by turning the plate at 1,000 rpm for one minute. Successively, thin membrane of the cyanine dye in this invention was formed on the glass plate by drying in the ventilation of warm and cooled air in this order. Immediately after determining optical transmittance (T0) of the cyanine dye in the form of thin membrane at absorption maximum (about 450 nm) wavelength, the membrane was exposed to xenon lamp (light-irradiation energy of 180 W/m^2 on the plate surface) in the ventilation of cooled air while placing […] xenon lamp with a prescribed distance away from the glass plate, after which the membrane was immediately determined for optical transmittance (T) at absorption maximum wavelength. Thereafter, residual dye rate (%) was calculated by substituting the obtained optical transmittances (T and T0) to Formula 1. In parallel, another thin membrane formed by cyanine dye represented by Chemical Formula 14 (Control 1), a additional thin membrane formed by cyanine dye represented by Chemical Formula 16 (Control 2), a further thin membrane formed by cyanine dye represented by Chemical Formula 14 and an equimolar azometallic complex represented by Chemical Formula 15 as an optical resistance-improving agent (Control 3), and one more additional thin membrane formed by cyanine dye represented by Chemical Formula 16 and an equimolar azometallic complex represented by Chemical Formula 15 as an optical resistance-improving agent (Control 4) were determined for optical resistance similarly as above.

[1] = thin membrane on glass plate, no optical resistance-improving agent, transmittance at absorption maximum (about 450 nm)
[2] = thin membrane with equimolar azometallic complex Chemical Formula 15 as optical resistance-improving agent

## CN1C(=CC2=[N+](C)c3ccccc3C2(C)C)C(C)(C)c2ccccc21 [Chemical Formula 14]
[1]
  Residual dye rate (%): 29.3%
[2]
  Residual dye rate (%): 91.7%

## CN1C(=CC2=[N+](C)c3ccc4ccccc4c3C2(C)C)C(C)(C)c2c1ccc1ccccc21 [Chemical Formula 16]
[1]
  Residual dye rate (%): 30.1%
[2]
  Residual dye rate (%): 92.2%
